Results reported in PubChem BioAssay (NCI).
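All cell lines were grown in 96-well plates and treated with compound for 48 hours. TGI: concentration producing complete growth inhibition.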

What was measured:
Assay in all cases: NCI tumour cell line growth inhibition, 48 h
[1] = system: EKVX NSCLC
[2] = system: NCI/ADR-RES ovarian
[3] = system: U251 CNS
[4] = system: OVCAR-4 ovarian
[5] = system: IGROV1 ovarian
[6] = system: KM12 colon
[7] = system: OVCAR-3 ovarian
[8] = system: CCRF-CEM leukemia
[9] = system: SNB-78 CNS
[10] = system: HOP-92 NSCLC
[11] = system: SN12C renal
[12] = system: MCF7 breast
[13] = system: SK-MEL-2 melanoma
[14] = system: HCC-2998 colon
[15] = system: LOX IMVI melanoma
[16] = system: NCI-H460 lung
[17] = system: SK-MEL-28 melanoma
[18] = system: NCI-H522 lung
[19] = system: CAKI-1 renal
[20] = system: M19-MEL melanoma
[21] = system: OVCAR-5 ovarian
[22] = system: SF-268 CNS
[23] = system: SF-539 CNS
[24] = system: HT29 colon
[25] = system: HOP-18 NSCLC
[26] = system: SNB-19 CNS
[27] = system: COLO 205 colon
[28] = system: XF 498 CNS
[29] = system: DLD-1 colon
[30] = system: NCI-H23 lung
[31] = system: HOP-62 NSCLC
[32] = system: HCT-116 colon
[33] = system: HL-60(TB) leukemia
[34] = system: A498 renal
[35] = system: HCT-15 colon
[36] = system: DMS 114 small cell lung
[37] = system: MOLT-4 leukemia
[38] = system: RXF 393 renal
[39] = system: OVCAR-8 ovarian
[40] = system: P388/ADR leukemia
[41] = system: NCI-H226 lung
[42] = system: SN12K1 renal
[43] = system: UACC-257 melanoma
[44] = system: A549 NSCLC
[45] = system: P388 leukemia
[46] = system: DMS 273 small cell lung
[47] = system: UO-31 renal
[48] = system: MALME-3M melanoma
[49] = system: KM20L2 colon
[50] = system: UACC-62 melanoma
[51] = system: RPMI-8226 leukemia
[52] = system: SF-295 CNS
[53] = system: SW-620 colon
[54] = system: SNB-75 CNS
[55] = system: K-562 leukemia
[56] = system: SK-OV-3 ovarian
[57] = system: SK-MEL-5 melanoma
[58] = system: 786-0 renal
[59] = system: TK-10 renal
[60] = system: RXF-631 renal
[61] = system: M14 melanoma
[62] = system: LXFL 529 NSCLC
[63] = system: ACHN renal
[64] = system: SR leukemia
[65] = system: DU-145 prostate

In the case of CC(=O)O[C@H]1CC[C@@]2(C)[C@H](CC[C@@H]3[C@@H]2CC[C@]2(C)[C@@H](c4ccc(=O)oc4)C[C@H]4O[C@]342)C1, the TGI [1] is reported as 2.39 µM, the TGI [2] is reported as 3.82 µM and the TGI [3] is reported as 4.6 µM. The TGI [4] was 3.86 µM, the TGI [5] was 11.3 µM and the TGI [6] was 36.8 µM. The TGI [7] was 1.67 µM, the TGI [8] was 1.52 µM and the TGI [9] was 4.8 µM. It also gave a TGI [10] of 3.67 µM, a TGI [11] of 9.49 µM and a TGI [12] of 22.1 µM. The TGI [13] was 6.49 µM, the TGI [14] was 8.88 µM and the TGI [15] was 7.67 µM. It also gave a TGI [16] of 0.878 µM, a TGI [17] of 20.9 µM and a TGI [18] of 1.23 µM. It also gave a TGI [19] of 1.31 µM, a TGI [20] of 7.17 µM and a TGI [21] of 12.2 µM. For the same molecule, the TGI [22] was 1.29 µM, the TGI [23] was 1.72 µM and the TGI [24] was 12.7 µM. It also gave a TGI [25] of 9.72 µM, a TGI [26] of 9.36 µM and a TGI [27] of 14.2 µM. The TGI [28] was 3.27 µM, the TGI [29] was 7.34 µM and the TGI [30] was 1.83 µM. It also gave a TGI [31] of 2.06 µM, a TGI [32] of 4.63 µM and a TGI [33] of 0.592 µM. It also gave a TGI [34] of 4.96 µM, a TGI [35] of 29.5 µM and a TGI [36] of 1.03 µM. For the same molecule, the TGI [37] was 0.556 µM, the TGI [38] was 0.673 µM and the TGI [39] was 4.1 µM. For the same molecule, the TGI [40] was 125 µM, the TGI [41] was 7.75 µM and the TGI [42] was 1.83 µM. The TGI [43] was 6.89 µM, the TGI [44] was 0.759 µM and the TGI [45] was 125 µM. For the same molecule, the TGI [46] was 1.47 µM, the TGI [47] was 3.18 µM and the TGI [48] was 2.61 µM. The TGI [49] was 12.5 µM, the TGI [50] was 3.46 µM and the TGI [51] was 5.1 µM. The TGI [52] was 2.97 µM, the TGI [53] was 3.1 µM and the TGI [54] was 3.45 µM. It also gave a TGI [55] of 13 µM, a TGI [56] of 5.68 µM and a TGI [57] of 1.51 µM.

In the case of COc1ccc(C2CCc3cc4c(cc3/C2=N/OC(C)=O)OCO4)cc1OC (configuration not stated), the TGI [1] is reported as greater than 100 µM, the TGI [58] is reported as greater than 100 µM and the TGI [3] is reported as greater than 100 µM. The TGI [4] was greater than 100 µM, the TGI [5] was greater than 100 µM and the TGI [59] was greater than 100 µM. For the same molecule, the TGI [6] was 54.8 µM, the TGI [7] was 55.9 µM and the TGI [8] was greater than 100 µM. It also gave a TGI [9] greater than 100 µM, a TGI [10] of 69.6 µM and a TGI [11] greater than 100 µM. The TGI [60] was greater than 100 µM, the TGI [13] was 64.7 µM and the TGI [15] was 33.1 µM. For the same molecule, the TGI [17] was 57.4 µM, the TGI [18] was 53.4 µM and the TGI [61] was 42.2 µM. It also gave a TGI [20] of 71 µM, a TGI [21] greater than 100 µM and a TGI [22] greater than 100 µM. The TGI [23] was 35.7 µM, the TGI [24] was greater than 100 µM and the TGI [25] was greater than 100 µM. The TGI [26] was greater than 100 µM, the TGI [27] was 63.5 µM and the TGI [28] was 57.5 µM. The TGI [30] was 72.6 µM, the TGI [62] was greater than 100 µM and the TGI [31] was greater than 100 µM. The TGI [32] was 28.1 µM, the TGI [35] was greater than 100 µM and the TGI [36] was 51.9 µM. For the same molecule, the TGI [37] was 52 µM, the TGI [38] was 54 µM and the TGI [39] was greater than 100 µM. It also gave a TGI [41] of 43.3 µM, a TGI [43] of 51.6 µM and a TGI [44] of 80.1 µM. It also gave a TGI [46] of 78.1 µM, a TGI [47] of 51.1 µM and a TGI [48] of 55.2 µM. The TGI [49] was 72.3 µM, the TGI [50] was 57.7 µM and the TGI [51] was 47.8 µM. For the same molecule, the TGI [52] was 82.2 µM, the TGI [53] was greater than 100 µM and the TGI [54] was 75 µM. For the same molecule, the TGI [55] was greater than 100 µM, the TGI [56] was 95.3 µM and the TGI [57] was 23 µM.

Molecule CN(C=O)/C=C/c1cc(O)ccc1O has a TGI [1] of 63.8 µM, a TGI [63] of 29.7 µM and a TGI [58] of 33.7 µM. For the same molecule, the TGI [3] was greater than 69.7 µM, the TGI [4] was 33.6 µM and the TGI [5] was greater than 71.4 µM. The TGI [59] was 54.1 µM, the TGI [6] was greater than 100 µM and the TGI [7] was 32.5 µM. It also gave a TGI [8] of 54.7 µM, a TGI [9] of 56.2 µM and a TGI [10] of 34.8 µM. The TGI [11] was 44.3 µM, the TGI [60] was greater than 100 µM and the TGI [13] was 59.5 µM. It also gave a TGI [14] greater than 100 µM, a TGI [15] of 45 µM and a TGI [16] greater than 74.7 µM. The TGI [17] was greater than 58.3 µM, the TGI [18] was 9.37 µM and the TGI [61] was greater than 57.9 µM. It also gave a TGI [19] of 38.9 µM, a TGI [20] of 44.9 µM and a TGI [21] of 63.9 µM. It also gave a TGI [22] of 48.5 µM, a TGI [23] greater than 65.4 µM and a TGI [24] of 49.2 µM. It also gave a TGI [25] of 31.4 µM, a TGI [26] greater than 100 µM and a TGI [27] of 45.4 µM. The TGI [29] was 39.4 µM, the TGI [30] was 64.3 µM and the TGI [62] was 33.6 µM. The TGI [31] was greater than 71.5 µM, the TGI [32] was 48.9 µM and the TGI [33] was 40.8 µM. It also gave a TGI [34] greater than 100 µM, a TGI [35] of 65.8 µM and a TGI [64] of 51.1 µM. It also gave a TGI [36] greater than 100 µM, a TGI [37] of 29.4 µM and a TGI [65] greater than 100 µM. The TGI [38] was 34.1 µM, the TGI [39] was 72.4 µM and the TGI [41] was greater than 78.7 µM. For the same molecule, the TGI [43] was 52.7 µM, the TGI [44] was greater than 100 µM and the TGI [46] was greater than 54.3 µM. It also gave a TGI [47] of 47 µM, a TGI [48] greater than 63.3 µM and a TGI [49] greater than 62.4 µM. For the same molecule, the TGI [50] was 46.9 µM, the TGI [51] was 75.6 µM and the TGI [52] was 47.7 µM. The TGI [53] was 37.9 µM, the TGI [54] was greater than 59 µM and the TGI [55] was 62.1 µM. The TGI [56] was greater than 100 µM and the TGI [57] was greater than 66.9 µM.
